The source of these data is US11116776B2, “Intravitreal drug delivery systems for the treatment of ocular conditions” (Aerie Pharmaceuticals, Inc., priority 2015, dated 2021).

Data set [1] is described as follows: ENVRES-PRE-002 ocular pharmacokinetics after intravitreal injection. The class given is in vivo, New Zealand White rabbits. Particulars: rabbit; for Cmax: male, New Zealand White, topical or ocular. The method, then:
New Zealand White rabbits, 2 males/group/terminal time point, were administered a single bilateral intravitreal injection of either ENV1105 or OZURDEX and were followed for up 1, 2, 3, and/or 5 months. Animals were examined via slit lamp ophthalmoscopy and indirect ophthalmoscopy.
Ocular tissues, including aqueous humor, vitreous humor, and retina, were processed and analyzed for dexamethasone or FA by two of three methods. Dexamethasone present in ocular tissue samples was quantified by ELISA and HPLC. FA present in ocular tissues was quantified by HPLC and mass spectrometry. Prior to analysis, implants or particles were separated from vitreous humor samples via manual removal or centrifugation. Vitreous humor and aqueous humor tissue samples were analyzed as received or diluted with ACN for LC MS/MS or PBS for ELISA.
Animals were followed for up to 3 months, with ocular matrices (retina/choroid, vitreous humor and aqueous humor) collected to determine ocular pharmacokinetics at Months 2 and 3. Ocular exams were conducted on Days 2, 3, 6, 10, weekly through Day 28, and then biweekly through Month 3 to determine tolerability. A summary of the study designed is provided below in Table 10.

For data set [2] the following is noted: monkey (Chang-Lin 2011); cited from earlier work.
Data set [3] relates to VEGF-induced vascular leakage. The following applies: rabbit model (Edelman 2005); cited from earlier work.

Turning to `CC1(C)O[C@@H]2C[C@H]3[C@@H]4C[C@H](F)C5=CC(=O)C=C[C@]5(C)[C@@]4(F)[C@@H](O)C[C@]3(C)[C@]2(C(=O)CO)O1` [fluocinolone acetonide, (1S,2S,4R,8S,9S,11S,12R,13S,19S)-12,19-difluoro-11-hydroxy-8-(2-hydroxyacetyl)-6,6,9,13-tetramethyl-5,7-dioxapentacyclo[10.8.0.0^2,9.0^4.8.0 ^13,18]icosa-14,17-dien-16-one], in data set [1] (Group 5 (ENV-1R-0119-33-7), retina/choroid and vitreous humor), the “day on which concentration peaked” value worked out at 84 days. For the same compound, the highest concentration (Cmax) in data set [1] (0.0407 mg, retina/choroid, Group 5 (ENV-1R-0119-33-7, 40.7 μg/eye)) turned out to be 3950 ng/g; in data set [1] (0.0407 mg, vitreous humor, Group 5 (ENV-1R-0119-33-7, 40.7 μg/eye)), 298 ng/g.

In the case of `C[C@@H]1C[C@H]2[C@@H]3CCC4=CC(=O)C=C[C@]4(C)[C@@]3(F)[C@@H](O)C[C@]2(C)[C@@]1(O)C(=O)CO` [Dexamethasone, (8S,9R,10S,11S,13S,14S,16R,17R)-9-Fluoro-11,17-dihydroxy-17-(2-hydroxyacetyl)-10,13,16-trimethyl-6,7,8,9,10,11,12,13,14,15,16,17-dodecahydro-3H-cyclopenta[a]phenanthren-3-one], the Cmax was 5.9 ng/mL in data set [1] (0.27 mg, aqueous humor, Group 4 (ENV-1R-0119-7-5, 6 implants, 270 μg/eye)); 28100 ng/g in data set [1] (0.27 mg, retina/choroid, Group 4 (ENV-1R-0119-7-5, 6 implants, 270 μg/eye)); 3080 ng/mL in data set [1] (0.27 mg, vitreous humor, Group 4 (ENV-1R-0119-7-5, 6 implants, 270 μg/eye)). Besides, the “time dexamethasone was detected in the retina and vitreous humor” value in data set [2] is listed as 6 months. Moreover, the “efficacy in VEGF-induced vascular leakage” value in data set [3] is listed as “effective”.
